# Reference: PubChem BioAssay AID2060617 (Molecular Pharmacology Branch, DTP, NCI, 2025)
# System: 485368-065-R4-J2-PDC spheroids with HUVEC/MSC, viability
# Assay: Anticancer human tumor 485368-065-R4-J2-PDC patient-derived pancreatic carcinoma cell line growth inhibition [CLK]
# Details: for IC50: curve of first compound; for viability, T/C: stronger effect = lower value
# Description: A high-throughput screen of multi-cell type tumor spheroids was designed to identify active combinations of […] and targeted small molecules. Complex spheroids include a stromal component modeled by human endothelial cells (HUVEC) and fibroblasts modeled by human mesenchymal stem cells (MSCs). The concentration ranges selected for each drug and investigational agent were based upon clinically achievable concentrations if the clinical Cmax of the agent was known.
# Compounds. The drugs and investigational agents: cirtuvivint (SM08502; NSC835563), CC-671 (NSC850746), vemurafenib (NSC761431), tapotoclax (NSC804041), sotorasib (NSC818433), adagrasib (NSC831453), MRTX-1133 (NSC836407), BAY2416964 (NSC825713), copanlisib (NSC816437), inavolisib (NSC800729), abemaciclib (NSC768073), osimertinib (NSC779217), entinostat (NSC756642), eltanexor (KPT-8602, NSC794443), venetoclax (NSC766270), ceralasertib (NSC777638), bortezomib (NSC756655), olaparib (NSC753686), talazoparib (NSC767125), alisertib (NSC759677), peposertib (NSC802822), gemcitabine (NSC613327), 5-fluorouracil (NSC19893), SN-38 (NSC673596), oxaliplatin (NSC266046), paclitaxel (NSC125973), and doxorubicin (NSC123127), were obtained from the National Cancer Institute (NCI) Developmental Therapeutics Program Chemical Repository. The FDA-approved anticancer drug set is available from the Developmental Therapeutics Program at https://dtp.cancer.gov/organization/dscb/obtaining/available plates.htm. […] The stock solutions were prepared in dimethyl sulfoxide (DMSO, Sigma-Aldrich, St. Louis, MO, cat. D2650), except for the platinum complexes which were prepared in saline (Quality Biological, Gaithersburg, MD, cat. 114-055-101), at 800-fold the tested concentration and stored at -70 degrees C prior to their use. All drugs and investigational agents were tested over a range starting from a high concentration at or near the clinical Cmax and decreasing in half-log increments. If the clinical Cmax for an agent had not been determined, the highest concentration tested was 10 microM.
# Cell Culture. All cells were maintained in an incubator at 37 degrees C and 5% CO2 with 95% humidity. The PDC lines were cultured according to standard operating procedures established by the NCI PDMR. Briefly, all PDCs were thawed and cultured in Matrigel-coated flasks prepared with a working solution of 1X Ham's F-12 nutrient mix, without supplementation (Invitrogen, Waltham, MA, cat. 11765054), 100 U/mL penicillin-streptomycin (Invitrogen, cat. 15140122), and 2.5% Matrigel (Corning Inc., Corning, NY, cat. 354248) for the first three passages. The 947758-054-R-J2-PDC line was cultured in 6B/Colon 1A media, which includes advanced DMEM/F-12 (Thermo Fisher Scientific, cat. 12634028), 10 mM HEPES (Thermo Fisher Scientific, cat. 15630080), 1X GlutaMAX supplement (Thermo Fisher Scientific, cat. 35050061), 0.1 mg/mL primocin (InvivoGen, cat. ant-pm-2), 10% defined fetal bovine serum, heat inactivated (HyClone Laboratories Inc., cat. SH30070.03HI), 1.25 mM N-Acetyl-L-cysteine (Sigma-Aldrich, cat. A9165), 10 mM nicotinamide (Sigma-Aldrich, cat. N0636), 1X B-27 supplement (Thermo Fisher Scientific, cat. 17504044), 1X N-2 supplement (Thermo Fisher Scientific, cat. 17502048), and 10 microM Y-27632 dihydrochloride (Tocris Bioscience, cat. 1254). The 876862-298-R-J1-PDC was cultured in 6E media, which includes all 6B/Colon 1A media components plus 50% L-WRN conditioned media (ATCC, cat. CRL-3276), 50 ng/mL recombinant human EGF recombinant protein (hEGF; Thermo Fisher Scientific, cat. PHG0311), 10 ng/mL recombinant human fibroblast growth factor 10 (hGFG-10; PeproTech, cat. 100-26), 1 ng/mL recombinant human fibroblast growth factor 2 (hFGF-2; PeproTech, cat. 100-18B), and 1 µM prostaglandin E2 (PGE2; Tocris, cat. 2296). The 227483-062-R1-J1-PDC line was cultured in Panc media, containing all 6E components except hFGF-2, with the addition of 500 nM SB-431542 (Selleckchem, cat. S1067) and 10 nM gastrin (Tocris, cat. 3006). […]
# [1] = second compound 0.0316 µM, first compound 0.0316 µM
# [2] = second compound 0.0316 µM, first compound 0.1 µM
# [3] = second compound 0.1 µM, first compound 0.0316 µM
# [4] = second compound 0.1 µM, first compound 0.1 µM
# [5] = second compound 0.316 µM, first compound 0.0316 µM
# [6] = second compound 0.316 µM, first compound 0.1 µM
# [7] = second compound 1 µM, first compound 0.0316 µM
# [8] = second compound 1 µM, first compound 0.1 µM
# [9] = second compound 3.16 µM, first compound 0.0316 µM
# [10] = second compound 3.16 µM, first compound 0.1 µM
# [11] = second compound 10 µM, first compound 0.0316 µM
# [12] = second compound 10 µM, first compound 0.1 µM
# 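Note: spheroids exposed to compounds for seven days.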
# 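Throughout, for viability, T/C: 100% = DMSO vehicle control wells.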
compound,measurement,setting,value
CC1COCCN1c1cc(C2(S(C)(=N)=O)CC2)nc(-c2ccnc3[nH]ccc23)n1 (centres undefined) + CNC(=O)c1ccc(Nc2nc(OC3CCCC3)c3c(-c4ccc5nc(C)oc5c4)c[nH]c3n2)c(OC)c1,IC50,second compound 0.0316 µM,> 10000 nM
same,IC50,second compound 0.1 µM,> 10000 nM
same,IC50,second compound 0.316 µM,> 10000 nM
same,IC50,second compound 1 µM,> 10000 nM
same,IC50,second compound 3.16 µM,> 10000 nM
same,IC50,second compound 10 µM,> 10000 nM
same,"viability, T/C",[1],82.7%
same,"viability, T/C",[2],96%
same,"viability, T/C","second compound 0.0316 µM, first compound 0.316 µM",102%
same,"viability, T/C","second compound 0.0316 µM, first compound 1 µM",101%
same,"viability, T/C","second compound 0.0316 µM, first compound 3.16 µM",99.2%
same,"viability, T/C","second compound 0.0316 µM, first compound 10 µM",107%
same,"viability, T/C",[3],91.1%
same,"viability, T/C",[4],95.1%
same,"viability, T/C","second compound 0.1 µM, first compound 0.316 µM",101%
same,"viability, T/C","second compound 0.1 µM, first compound 1 µM",97.6%
same,"viability, T/C","second compound 0.1 µM, first compound 3.16 µM",102%
same,"viability, T/C","second compound 0.1 µM, first compound 10 µM",97.4%
same,"viability, T/C",[5],84.7%
same,"viability, T/C",[6],85%
same,"viability, T/C","second compound 0.316 µM, first compound 0.316 µM",75.9%
same,"viability, T/C","second compound 0.316 µM, first compound 1 µM",89.7%
same,"viability, T/C","second compound 0.316 µM, first compound 3.16 µM",90.3%
same,"viability, T/C","second compound 0.316 µM, first compound 10 µM",82%
same,"viability, T/C",[7],80.3%
same,"viability, T/C",[8],78%
same,"viability, T/C","second compound 1 µM, first compound 0.316 µM",72.6%
same,"viability, T/C","second compound 1 µM, first compound 1 µM",81.2%
same,"viability, T/C","second compound 1 µM, first compound 3.16 µM",90.1%
same,"viability, T/C","second compound 1 µM, first compound 10 µM",73.4%
same,"viability, T/C",[9],76.3%
same,"viability, T/C",[10],78.2%
same,"viability, T/C","second compound 3.16 µM, first compound 0.316 µM",68%
same,"viability, T/C","second compound 3.16 µM, first compound 1 µM",72.7%
same,"viability, T/C","second compound 3.16 µM, first compound 3.16 µM",68.7%
same,"viability, T/C","second compound 3.16 µM, first compound 10 µM",54.1%
same,"viability, T/C",[11],74%
same,"viability, T/C",[12],70.6%
same,"viability, T/C","second compound 10 µM, first compound 0.316 µM",62.2%
same,"viability, T/C","second compound 10 µM, first compound 1 µM",71.6%
same,"viability, T/C","second compound 10 µM, first compound 3.16 µM",69%
same,"viability, T/C","second compound 10 µM, first compound 10 µM",59.6%
Cn1ncnc1[C@H]1c2n[nH]c(=O)c3cc(F)cc(c23)N[C@@H]1c1ccc(F)cc1 + CN1CCN(c2cc(C(=O)Nc3cc4cc(-c5cnn(C)c5)ccc4cn3)ccn2)CC1,IC50,second compound 0.0316 µM,> 100 nM
same,IC50,second compound 0.1 µM,> 100 nM
same,IC50,second compound 0.316 µM,88.6 nM
same,IC50,second compound 1 µM,< 0.316 nM
same,IC50,second compound 3.16 µM,< 0.316 nM
same,IC50,second compound 10 µM,< 0.316 nM
same,"viability, T/C","second compound 0.0316 µM, first compound 0.000316 µM",99.9%
same,"viability, T/C","second compound 0.0316 µM, first compound 0.001 µM",107%
same,"viability, T/C","second compound 0.0316 µM, first compound 0.00316 µM",105%
same,"viability, T/C","second compound 0.0316 µM, first compound 0.01 µM",105%
same,"viability, T/C",[1],109%
same,"viability, T/C",[2],88.7%
same,"viability, T/C","second compound 0.1 µM, first compound 0.000316 µM",108%
same,"viability, T/C","second compound 0.1 µM, first compound 0.001 µM",112%
same,"viability, T/C","second compound 0.1 µM, first compound 0.00316 µM",119%
same,"viability, T/C","second compound 0.1 µM, first compound 0.01 µM",109%
same,"viability, T/C",[3],96.6%
same,"viability, T/C",[4],75.9%
same,"viability, T/C","second compound 0.316 µM, first compound 0.000316 µM",85.2%
same,"viability, T/C","second compound 0.316 µM, first compound 0.001 µM",87.8%
same,"viability, T/C","second compound 0.316 µM, first compound 0.00316 µM",84.1%
same,"viability, T/C","second compound 0.316 µM, first compound 0.01 µM",72.2%
same,"viability, T/C",[5],55.9%
same,"viability, T/C",[6],49.2%
same,"viability, T/C","second compound 1 µM, first compound 0.000316 µM",1.46%
same,"viability, T/C","second compound 1 µM, first compound 0.001 µM",0.88%
same,"viability, T/C","second compound 1 µM, first compound 0.00316 µM",1.83%
same,"viability, T/C","second compound 1 µM, first compound 0.01 µM",0.77%
same,"viability, T/C",[7],1.6%
same,"viability, T/C",[8],1.69%
same,"viability, T/C","second compound 3.16 µM, first compound 0.000316 µM",1%
same,"viability, T/C","second compound 3.16 µM, first compound 0.001 µM",1.76%
same,"viability, T/C","second compound 3.16 µM, first compound 0.00316 µM",0.88%
same,"viability, T/C","second compound 3.16 µM, first compound 0.01 µM",1.07%
same,"viability, T/C",[9],1.7%
same,"viability, T/C",[10],1.76%
same,"viability, T/C","second compound 10 µM, first compound 0.000316 µM",2.24%
same,"viability, T/C","second compound 10 µM, first compound 0.001 µM",1.19%
same,"viability, T/C","second compound 10 µM, first compound 0.00316 µM",1.54%
same,"viability, T/C","second compound 10 µM, first compound 0.01 µM",2.1%
same,"viability, T/C",[11],2.02%
same,"viability, T/C",[12],1.77%
